Assays:
BRAF^V600E = BRAF^V600E (Homo sapiens, UniProt P15056, V600E); experiment: BRAF^V600E enzymatic activity assay (LanthaScreen kinase assay kit, TR-FRET)
A375 cells = experiment: Cell proliferation assay (CellTiter-Glo), A375 cells; format: cell-based; conditions: Homo sapiens, A-375, 72 h, 3-day treatment, vs vehicle control (1% DMSO), read-out: A375 cell growth IC50
Experimental: Cell Proliferation Assay:
A375, Colo-205, Calu-6, and SW-480 cells were purchased from American Type Culture Collection (USA). All cells were cultured in the recommended medium and serum concentration. Cells were maintained at 37° C. in a humidified atmosphere with 5% CO2. For cell proliferation assay, cells were seeded in 96-well pates at a density of 1,000 to 5,000 cells per well and cultured overnight at 37° C. in medium supplemented with 5-10% FBS. On the next day, the test articles at various concentrations or vehicle control (1% DMSO) were added into cell culture. After 3-day treatment, the growth of cells was assayed by the CellTiter-Glo® Luminestceaent Cell Viability Assay (Promega).

Sequence of BRAF^V600E (P15056 whole entry V600E): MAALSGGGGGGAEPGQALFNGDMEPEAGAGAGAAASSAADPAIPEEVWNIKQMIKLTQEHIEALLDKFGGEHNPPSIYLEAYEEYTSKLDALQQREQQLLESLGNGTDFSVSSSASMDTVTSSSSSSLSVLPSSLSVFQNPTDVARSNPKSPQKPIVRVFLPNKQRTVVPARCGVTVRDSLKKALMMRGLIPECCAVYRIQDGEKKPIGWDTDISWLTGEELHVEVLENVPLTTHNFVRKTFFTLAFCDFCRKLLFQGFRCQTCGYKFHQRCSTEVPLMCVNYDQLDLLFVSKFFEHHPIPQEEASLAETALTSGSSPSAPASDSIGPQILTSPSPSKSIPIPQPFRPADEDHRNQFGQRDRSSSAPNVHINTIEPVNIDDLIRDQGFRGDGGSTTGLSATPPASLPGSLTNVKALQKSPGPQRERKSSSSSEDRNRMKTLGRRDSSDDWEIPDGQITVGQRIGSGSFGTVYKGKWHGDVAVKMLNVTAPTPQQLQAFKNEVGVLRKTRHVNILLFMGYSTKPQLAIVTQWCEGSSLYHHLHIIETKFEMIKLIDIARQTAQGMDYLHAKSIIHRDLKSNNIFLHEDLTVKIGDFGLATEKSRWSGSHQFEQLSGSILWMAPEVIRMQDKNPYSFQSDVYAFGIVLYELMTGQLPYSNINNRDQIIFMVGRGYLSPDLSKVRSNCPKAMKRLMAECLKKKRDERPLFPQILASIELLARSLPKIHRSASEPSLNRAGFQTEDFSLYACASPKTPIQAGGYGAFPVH

| Compound | IC50 (BRAF^V600E) [nM] | IC50 (A375 cells) [nM] |
| --- | --- | --- |
| CCCS(=O)(=O)Nc1ccc(F)c(-c2cc3cnc(NC[C@H](C)NC(=O)OC)cc3cc2OCCF)c1F [Example 6, methyl N-[(1S)-2-[[7-[2,6-difluoro-3-(propylsulfonylamino)phenyl]-6-(2-fluoroethoxy)-3-isoquinolyl]amino]-1-methyl-ethyl]carbamate] | 100 | 158 |
| O=S(=O)(CCCF)Nc1ccc(F)c(-c2ccc3c(cnc4[nH]ncc43)c2)c1Cl [Example 15, N-(2-chloro-4-fluoro-3-(3H-pyrazolo[3,4-c]isoquinolin-7-yl)phenyl)-3-fluoropropane-1-sulfonamide] | 6.6 | 23 |
| O=S1(=O)CCCN1c1ccc(F)c(-c2ccc3c(cnc4[nH]ncc43)c2)c1F [Example 18, N-(2,4-difluoro-3-(3H-pyrazolo[3,4-c]isoquinolin-7-yl)phenyl)-1,3-propanesultam] | 3740 | 1000 |
| CCCS(=O)(=O)Nc1ccc(F)c(-c2cc3cnc4[nH]nc(C5CC5)c4c3cc2OC)c1Cl [Example 24, N-(2-chloro-3-(1-cyclopropyl-8-methoxy-3H-pyrazolo[3,4-c]isoquinolin-7-yl)-4-fluorophenyl)propane-1-sulfonamide] |  | 284 |
| CCCS(=O)(=O)Nc1ccc(F)c(-c2cc3cnc4[nH]nc(C5CC5)c4c3cc2OC)c1F [Example 23, N-(3-(1-cyclopropyl-8-methoxy-3H-pyrazolo[3,4-c]isoquinolin-7-yl)-2,4-difluorophenyl)propane-1-sulfonamide] |  | 100 |
| CCCS(=O)(=O)Nc1ccc(F)c(-c2cc3cnc(NC[C@H](C)NC(=O)OC)cc3cc2CC)c1F [Example 7, methyl N-[(1S)-2-[[7-[2,6-difluoro-3-(propylsulfonylamino)phenyl]-6-ethyl-3-isoquinolyl]amino]-1-methyl-ethyl]carbamate] | 560 | 306 |
| CCCS(=O)(=O)Nc1ccc(F)c(-c2cc3cnc4[nH]ncc4c3cc2OC)c1F [Example 19, N-(2,4-difluoro-3-(8-methoxy-3H-pyrazolo[3,4-c]isoquinolin-7-yl)phenyl)propane-1-sulfonamide] | 60 | 77 |
| CCCS(=O)(=O)Nc1ccc(Cl)c(-c2ccc3c(cnc4[nH]ncc43)c2)c1Cl [Example 16, N-(2,4-dichloro-3-(3H-pyrazolo[3,4-c]isoquinolin-7-yl)phenyl)propane-1-sulfonamide] | 41.3 | 341 |
| COc1cc2c(cnc3[nH]nc(C4CC4)c32)cc1-c1c(F)ccc(NS(=O)(=O)CCCF)c1F [Example 26, N-(3-(1-cyclopropyl-8-methoxy-3H-pyrazolo[3,4-c]isoquinolin-7-yl)-2,4-difluorophenyl)-3-fluoropropane-1-sulfonamide] | 48.8 | 29.7 |
| COc1cc2c(cnc3[nH]ncc32)cc1-c1c(F)ccc(NS(=O)(=O)CCCF)c1Cl [Example 22, N-(2-chloro-4-fluoro-3-(8-methoxy-3H-pyrazolo[3,4-c]isoquinolin-7-yl)phenyl)-3-fluoropropane-1-sulfonamide] | 12 | 66 |
| COc1cc2c(cnc3[nH]ncc32)cc1-c1c(F)ccc(NS(=O)(=O)CCCF)c1F [Example 21, N-(2,4-difluoro-3-(8-methoxy-3H-pyrazolo[3,4-c]isoquinolin-7-yl)phenyl)-3-fluoropropane-1-sulfonamide] | 70 | 94 |
| COc1cc2c(cnc3[nH]nc(C4CC4)c32)cc1-c1c(F)ccc(NS(=O)(=O)CCCF)c1Cl [Example 25, N-(2-chloro-3-(1-cyclopropyl-8-methoxy-3H-pyrazolo[3,4-c]isoquinolin-7-yl)-4-fluorophenyl)-3-fluoropropane-1-sulfonamide] |  | 25 |
| CCCS(=O)(=O)Nc1ccc(F)c(-c2cc3cnc(NC[C@H](C)NC(=O)OC)cc3cc2OC)c1F [Example 4, methyl N-[(1S)-2-[[7-[2,6-difluoro-3-(propylsulfonylamino)phenyl]-6-methoxy-3-isoquinolyl]amino]-1-methyl-ethyl]carbamate] | 212 | 19 |
| CCCS(=O)(=O)Nc1ccc(F)c(-c2cc3cnc(N)cc3cc2OC)c1F [Example 3, N-(3-(3-amino-6-methoxyisoquinolin-7-yl)-2,4-difluorophenyl)propane-1-sulfonamide] | 799 | 1000 |
| CCCS(=O)(=O)Nc1ccc(F)c(-c2cc3cnc(NC[C@@H](C)NC(=O)OC)cc3cc2OC)c1F [Example 5, methyl N-[(1R)-2-[[7-[2,6-difluoro-3-(propylsulfonylamino)phenyl]-6-methoxy-3-isoquinolyl]amino]-1-methyl-ethyl]carbamate] | 3660 | 726 |
| CCCS(=O)(=O)Nc1ccc(F)c(-c2cc3cnc4[nH]ncc4c3cc2OC)c1Cl [Example 20, N-(2-chloro-4-fluoro-3-(8-methoxy-3H-pyrazolo[3,4-c]isoquinolin-7-yl)phenyl)propane-1-sulfonamide] | 10 | 47 |
| CCCS(=O)(=O)Nc1ccc(F)c(-c2ccc3cc(NC[C@H](C)NC(=O)OC)ncc3c2)c1F [Example 2, (S)-methyl-1-(7-(2,6-difluoro-3-(propylsulfonamido)phenyl)isoquinolin-3-ylamino)propan-2-ylcarbamate] |  | 775 |

Further lines, results first:

| IC50 (BRAF^V600E) [nM] | IC50 (A375 cells) [nM] | Compound |
| --- | --- | --- |
| 118 | 131 | CCCS(=O)(=O)Nc1ccc(Cl)c(-c2ccc3c(cnc4[nH]ncc43)c2)c1F [Example 17, N-(4-chloro-2-fluoro-3-(3H-pyrazolo[3,4-c]isoquinolin-7-yl)phenyl)propane-1-sulfonamide] |
| 50 | 66 | O=S(=O)(CCCF)Nc1ccc(F)c(-c2ccc3c(cnc4[nH]ncc43)c2)c1F [Example 14, N-(2,4-difluoro-3-(3H-pyrazolo[3,4-c]isoquinolin-7-yl)phenyl)-3-fluoropropane-1-sulfonamide] |
| 389 | 309 | CCCS(=O)(=O)Nc1ccc(F)c(-c2ccc3c(cnc4[nH]cnc43)c2)c1F [Example 28, N-(2,4-difluoro-3-(3H-imidazo[4,5-c]isoquinolin-7-yl)phenyl)propane-1-sulfonamide] |
|  | 145 | CCCS(=O)(=O)Nc1ccc(F)c(-c2ccc3c(cnc4[nH]nc(Br)c43)c2)c1F [Example 9, N-(3-(1-bromo-3H-pyrazolo[3,4-c]isoquinolin-7-yl)-2,4-difluorophenyl)propane-1-sulfonamide] |
| 18.3 | 95 | CCCS(=O)(=O)Nc1ccc(F)c(-c2ccc3c(cnc4[nH]ncc43)c2)c1Cl [Example 11, N-(2-chloro-4-fluoro-3-(3H-pyrazolo[3,4-c]isoquinolin-7-yl)phenyl)propane-1-sulfonamide] |
| 20 | 64 | CCCS(=O)(=O)Nc1ccc(F)c(-c2ccc3c(cnc4[nH]nc(C5CC5)c43)c2)c1Cl [Example 13, N-(2-chloro-3-(1-cyclopropyl-3H-pyrazolo[3,4-c]isoquinolin-7-yl)-4-fluorophenyl)propane-1-sulfonamide] |
|  | 144 | CCCS(=O)(=O)Nc1ccc(F)c(-c2ccc3c(cnc4[nH]nc(Br)c43)c2)c1Cl [Example 12, N-(3-(1-bromo-3H-pyrazolo[3,4-c]isoquinolin-7-yl)-2-chloro-4-fluorophenyl)propane-1-sulfonamide] |
| 2710 | 145 | CCCS(=O)(=O)Nc1ccc(F)c(-c2ccc3c(cnc4[nH]nc(C5CC5)c43)c2)c1F [Example 10, N-(3-(1-cyclopropyl-3H-pyrazolo[3,4-c]isoquinolin-7-yl)-2,4-difluorophenyl)propane-1-sulfonamide] |
| 70 | 227 | CCCS(=O)(=O)Nc1ccc(F)c(-c2ccc3c(cnc4[nH]ncc43)c2)c1F [Example 8, N-(2,4-difluoro-3-(3H-pyrazolo[3,4-c]isoquinolin-7-yl)phenyl)propane-1-sulfonamide] |
| 8690 | 103 | CCCS(=O)(=O)Nc1ccc(F)c(-c2ccc3cc(N)ncc3c2)c1F [Example 1, N-(3-(3-aminoisoquinolin-7-yl)-2,4-difluorophenyl)propane-1-sulfonamide] |
| 690 | 1000 | CCCS(=O)(=O)Nc1ccc(F)c(-c2ccc3c(cnc4[nH]ccc43)c2)c1F [Example 27, N-(2,4-difluoro-3-(3H-pyrrolo[2,3-c]isoquinolin-7-yl)phenyl)propane-1-sulfonamide] |
